Here are results for one molecule from PMC9299796, “A Specialized Dehydrogenase Provides L‐Phenyllactate for FR900359 Biosynthesis” (Chembiochem, 2021).

The experiment concerns FrsC. The settings on record: 0.5 mM NADPH, pH 6, 30 °C, 1 μM FrsC, tag removed.

In the case of `O=C(O)C(=O)Cc1ccccc1` [phenylpyruvic acid], the Michaelis-Menten constant (Km) turned out to be 1370 ± 410 µM.
